#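 Growth conditions: 96-well plates. Treatment: test compound, 48 hours, 5 concentrations. Analysis: linear interpolation between bracketing concentrations; unreached endpoints set to highest concentration. TGI: total growth inhibition.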
# Experiments:
# Experiment in all cases: NCI anticancer screen, dose series, 48 h
# [1] = system: SK-MEL-5 melanoma
# [2] = system: HOP-62 NSCLC
# [3] = system: HCT-15 colon
# [4] = system: DU-145 prostate
# [5] = system: MDA-N
# [6] = system: HCT-116 colon
# [7] = system: SN12C renal
# [8] = system: CAKI-1 renal
# [9] = system: A549 NSCLC
# [10] = system: OVCAR-4 ovarian
# [11] = system: SK-OV-3 ovarian
# [12] = system: PC-3 prostate
# [13] = system: UACC-62 melanoma
# [14] = system: RPMI-8226 leukemia
# [15] = system: IGROV1 ovarian
# [16] = system: MALME-3M melanoma
# [17] = system: SF-268 CNS
# [18] = system: BT-549 breast
# [19] = system: HS 578T breast
# [20] = system: U251 CNS
# [21] = system: NCI-H460 lung
# [22] = system: ACHN renal
# [23] = system: NCI/ADR-RES ovarian
# [24] = system: SF-295 CNS
# [25] = system: K-562 leukemia
# [26] = system: SW-620 colon
# [27] = system: UACC-257 melanoma
# [28] = system: TK-10 renal
# [29] = system: OVCAR-3 ovarian
# [30] = system: COLO 205 colon
# [31] = system: T-47D breast
# [32] = system: SK-MEL-2 melanoma
# [33] = system: HCC-2998 colon
# [34] = system: LOX IMVI melanoma
# [35] = system: NCI-H226 lung
# [36] = system: EKVX NSCLC
# [37] = system: MDA-MB-435
# [38] = system: A498 renal
# [39] = system: SNB-75 CNS
# [40] = system: SNB-19 CNS
# [41] = system: UO-31 renal
# [42] = system: SF-539 CNS
# [43] = system: OVCAR-5 ovarian
# [44] = system: HT29 colon
# [45] = system: SK-MEL-28 melanoma
# [46] = system: MCF7 breast
# [47] = system: 786-0 renal
# [48] = system: OVCAR-8 ovarian
# [49] = system: MOLT-4 leukemia
# [50] = system: M14 melanoma
# [51] = system: NCI-H23 lung
# [52] = system: HOP-92 NSCLC
# [53] = system: KM12 colon
# [54] = system: NCI-H522 lung
# [55] = system: MDA-MB-231 breast
# [56] = system: CCRF-CEM leukemia
# [57] = system: RXF 393 renal
smiles,measurement,setting,value
COc1ccc(N2C(=O)C3c4[nH]c5cccc(Cl)c5c4C4CCC(C(C)(C)C)CC4C3C2=O)cc1 (stereo not given),TGI,[1],> 100 µM
same,TGI,[2],53.5 µM
same,TGI,[3],> 100 µM
same,TGI,[4],> 100 µM
same,TGI,[5],> 100 µM
same,TGI,[6],> 100 µM
same,TGI,[7],> 100 µM
same,TGI,[8],> 100 µM
same,TGI,[9],> 100 µM
same,TGI,[10],> 100 µM
same,TGI,[11],> 100 µM
same,TGI,[12],> 100 µM
same,TGI,[13],> 100 µM
same,TGI,[14],> 100 µM
same,TGI,[15],> 100 µM
same,TGI,[16],> 100 µM
same,TGI,[17],> 100 µM
same,TGI,[18],> 100 µM
same,TGI,[19],90.7 µM
same,TGI,[20],> 100 µM
same,TGI,[21],> 100 µM
same,TGI,[22],> 100 µM
same,TGI,[23],> 100 µM
same,TGI,[24],> 100 µM
same,TGI,[25],> 100 µM
same,TGI,[26],> 100 µM
same,TGI,[27],> 100 µM
same,TGI,[28],> 100 µM
same,TGI,[29],> 100 µM
same,TGI,[30],> 100 µM
same,TGI,[31],> 100 µM
same,TGI,[32],> 100 µM
same,TGI,[33],> 100 µM
same,TGI,[34],> 100 µM
same,TGI,[35],> 100 µM
same,TGI,[36],> 100 µM
same,TGI,[37],> 100 µM
same,TGI,[38],> 100 µM
same,TGI,[39],53.2 µM
same,TGI,[40],> 100 µM
same,TGI,[41],> 100 µM
same,TGI,[42],> 100 µM
same,TGI,[43],> 100 µM
same,TGI,[44],> 100 µM
same,TGI,[45],> 100 µM
same,TGI,[46],> 100 µM
same,TGI,[47],> 100 µM
same,TGI,[48],> 100 µM
same,TGI,[49],> 100 µM
same,TGI,[50],> 100 µM
same,TGI,[51],> 100 µM
same,TGI,[52],> 100 µM
same,TGI,[53],> 100 µM
same,TGI,[54],> 100 µM
same,TGI,[55],> 100 µM
C=CCN(c1cc(OCc2ccccc2)c2c(c(C)cn2S(=O)(=O)c2ccc([N+](=O)[O-])cc2)c1[N+](=O)[O-])S(C)(=O)=O,TGI,[1],> 100 µM
same,TGI,[2],> 100 µM
same,TGI,[3],> 100 µM
same,TGI,[4],> 100 µM
same,TGI,[5],> 100 µM
same,TGI,[6],> 100 µM
same,TGI,[7],> 100 µM
same,TGI,[8],> 100 µM
same,TGI,[9],> 100 µM
same,TGI,[10],> 100 µM
same,TGI,[11],> 100 µM
same,TGI,[12],> 100 µM
same,TGI,[13],> 100 µM
same,TGI,[14],> 100 µM
same,TGI,[15],> 100 µM
same,TGI,[16],> 100 µM
same,TGI,[17],> 100 µM
same,TGI,[18],> 100 µM
same,TGI,[19],> 100 µM
same,TGI,[56],> 52.3 µM
same,TGI,[20],> 100 µM
same,TGI,[21],> 100 µM
same,TGI,[22],> 100 µM
same,TGI,[23],> 100 µM
same,TGI,[24],> 100 µM
same,TGI,[25],> 100 µM
same,TGI,[27],> 100 µM
same,TGI,[28],> 100 µM
same,TGI,[29],> 100 µM
same,TGI,[30],> 100 µM
same,TGI,[31],> 100 µM
same,TGI,[57],> 100 µM
same,TGI,[32],> 100 µM
same,TGI,[33],> 100 µM
same,TGI,[34],> 100 µM
same,TGI,[35],> 100 µM
same,TGI,[36],> 100 µM
same,TGI,[37],54.1 µM
same,TGI,[39],> 100 µM
same,TGI,[40],> 100 µM
same,TGI,[41],> 100 µM
same,TGI,[42],> 100 µM
same,TGI,[43],> 100 µM
same,TGI,[44],> 100 µM
same,TGI,[45],> 100 µM
same,TGI,[46],> 100 µM
same,TGI,[47],> 100 µM
same,TGI,[48],> 100 µM
same,TGI,[49],> 100 µM
same,TGI,[50],> 100 µM
same,TGI,[51],> 100 µM
same,TGI,[52],> 100 µM
same,TGI,[53],> 100 µM
same,TGI,[54],> 100 µM
same,TGI,[55],> 100 µM

# Source: PubChem BioAssay (NCI)
